Earlier results on one substance are cited in patent publication US4833125A, “Method of increasing bone mass” (The General Hospital Corporation, priority 1987, dated 1989).

This data set concerns osteoporosis in humans. The settings on record: hPTH (1-34) alone, Reeve et al. 1980.

For the substance “hPTH (1-34): fragment of human parathyroid hormone, first thirty-four amino acid residues, given alone in cited trial (SVSEIQLMHNLGKHLNSMERVEWLRKKLQDVHNF; Parathyroid hormone; UniProt P01270 32-65, looked up, fragment)”, the axial trabecular bone entry is on record as “considerable increase”; the “calcium retention, and hence total bone mass” value is “improved in only about half of these patients”.
